Data as given in US9513294B2, “Megastokes amino-triazolyl-BODIPY compounds and applications to live neuron staining and human serum albumin FA1 drug site probing” (National University of Singapore, priority 2012, dated 2016).

Legend:
[1] = Absorbance and fluorescence emission spectra (SpectraMax M2); type: physicochemical; conditions: for λmax Abs. (nm) / λmax Em. (nm): MKAC compound library; for λmax Abs. (nm) / λmax Absorp. (nm): absorbance maximum; for λmax Em. (nm) / λmax Emission (nm): fluorescence emission maximum; for λmax Absorp. (nm) / λmax Emission (nm): MKCA compound library
Procedure, shortened: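 Spectroscopic data, including quantum yields, were recorded with a SpectraMax M2 instrument and analysed in GraphPrism.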

[2] = Quantum yield measurements versus Acridine Yellow in EtOH; type: physicochemical; conditions: for φ (quantum yield): excitation 460 nm; for φ (%): quantum yield
Procedure, shortened: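 Emission areas integrated over 510–700 nm were compared with Acridine Yellow in ethanol (Φ=0.47), all excited at 460 nm. The comparative equation was normalized to excitation-wavelength absorbance and solvent refractive index.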

Nc1ccc(C2=C3C=CC(N4CCCCC4)=[N+]3[B-](F)(F)n3c2ccc3-n2cc(-c3ccc(OC(F)(F)F)cc3)nn2)cc1 [BDC-15]
λmax Absorp. ([1]; BDC library, Table 2): 469 nm
λmax Emission ([1]; BDC library, Table 2): 549 nm
φ (quantum yield) ([2]; BDC library, Table 2): 0.19%

CC(=O)Nc1ccc(C2=C3C=CC(NCc4ccccc4C)=[N+]3[B-](F)(F)n3c2ccc3-n2cc(CO)nn2)cc1 [MKAC101-70]
λmax Abs. (nm) [1]: 465 nm
λmax Em. (nm) [1]: 561 nm
φ (%) ([2]; MKAC compound library): 18.11%

CC(=O)Nc1ccc(C2=C3C=CC(N4CCCCC4)=[N+]3[B-](F)(F)n3c2ccc3-n2cc(C3CCCC3)nn2)cc1 [BDCAC-5]
λmax Absorp. ([1]; BDCAC library, Table 3): 469 nm
λmax Emission ([1]; BDCAC library, Table 3): 588 nm
φ (quantum yield) ([2]; BDCAC library, Table 3): 1.3%

O=C(CCl)Nc1ccc(C2=C3C=CC(N4CCCCC4)=[N+]3[B-](F)(F)n3c2ccc3-n2cc(COc3ccccc3)nn2)cc1 [BDCCA-17]
λmax Absorp. ([1]; BDCCA library, Table 4): 464 nm
λmax Emission ([1]; BDCCA library, Table 4): 584 nm
φ (quantum yield) ([2]; BDCCA library, Table 4): 0.7%

CC(=O)Nc1ccc(C2=C3C=CC(N4CCCCC4)=[N+]3[B-](F)(F)n3c2ccc3-n2cc(-c3ccccc3)nn2)cc1 [BDCAC-9]
λmax Absorp. ([1]; BDCAC library, Table 3): 465 nm
λmax Emission ([1]; BDCAC library, Table 3): 579 nm
φ (quantum yield) ([2]; BDCAC library, Table 3): 1.1%

CC(C)Cc1cn(-c2ccc3n2[B-](F)(F)[N+]2=C(N4CCCCC4)C=CC2=C3c2ccc(N)cc2)nn1 [BDC-43]
λmax Absorp. ([1]; BDC library, Table 2): 476 nm
λmax Emission ([1]; BDC library, Table 2): 589 nm
φ (quantum yield) ([2]; BDC library, Table 2): 0.10%

CC(=O)Nc1ccc(C2=C3C=CC(N4CCCCC4)=[N+]3[B-](F)(F)n3c2ccc3-n2cc(CN(C)C)nn2)cc1 [BDCAC-2]
λmax Absorp. ([1]; BDCAC library, Table 3): 466 nm
λmax Emission ([1]; BDCAC library, Table 3): 591 nm
φ (quantum yield) ([2]; BDCAC library, Table 3): 0.8%

CCCC(C)c1cn(-c2ccc3n2[B-](F)(F)[N+]2=C(N(C)Cc4ccccc4)C=CC2=C3c2ccc(N)cc2)nn1 (stereo not drawn) [MK195-3]
λmax Absorp. ([1]; MK library, Table 5): 476 nm
λmax Emission ([1]; MK library, Table 5): 564 nm
φ (quantum yield) ([2]; MK library, Table 5): 0.46%

CCc1ccc(-c2cn(-c3ccc4n3[B-](F)(F)[N+]3=C(N5CCCCC5)C=CC3=C4c3ccc(N)cc3)nn2)cc1 [BDC-46]
λmax Absorp. ([1]; BDC library, Table 2): 473 nm
λmax Emission ([1]; BDC library, Table 2): 585 nm
φ (quantum yield) ([2]; BDC library, Table 2): 0.10%

CCCCCC(O)c1cn(-c2ccc3n2[B-](F)(F)[N+]2=C(NCc4ccccc4C)C=CC2=C3c2ccc(NC(=O)CCl)cc2)nn1 (stereo not drawn) [MKCA101-69]
λmax Absorp. (nm) [1]: 466 nm
λmax Emission (nm) [1]: 562 nm
φ (%) ([2]; MKCA compound library): 21.93%

CC(=O)Nc1ccc(C2=C3C=CC(N4CCCCC4)=[N+]3[B-](F)(F)n3c2ccc3-n2cc(-c3ccc(C)cc3)nn2)cc1 [BDCAC-10]
λmax Absorp. ([1]; BDCAC library, Table 3): 464 nm
λmax Emission ([1]; BDCAC library, Table 3): 556 nm
φ (quantum yield) ([2]; BDCAC library, Table 3): 2.4%

COc1ccc2cc(-c3cn(-c4ccc5n4[B-](F)(F)[N+]4=C(N6CCCCC6)C=CC4=C5c4ccc(NC(=O)CCl)cc4)nn3)ccc2c1 [BDCCA-22]
λmax Absorp. ([1]; BDCCA library, Table 4): 464 nm
λmax Emission ([1]; BDCCA library, Table 4): 586 nm
φ (quantum yield) ([2]; BDCCA library, Table 4): 1.1%

CC(=O)Nc1ccc(C2=C3C=CC(N4CCc5ccccc5C4)=[N+]3[B-](F)(F)n3c2ccc3-n2cc(CCc3ccccc3)nn2)cc1 [MKAC66-19]
λmax Abs. (nm) [1]: 470 nm
λmax Em. (nm) [1]: 580 nm
φ (%) ([2]; MKAC compound library): 1.76%

CCCCCc1ccc(-c2cn(-c3ccc4n3[B-](F)(F)[N+]3=C(N5CCCCC5)C=CC3=C4c3ccc(NC(=O)CCl)cc3)nn2)cc1 [BDCCA-29]
λmax Absorp. ([1]; BDCCA library, Table 4): 464 nm
λmax Emission ([1]; BDCCA library, Table 4): 548 nm
φ (quantum yield) ([2]; BDCCA library, Table 4): 1.7%

CC(=O)Nc1ccc(C2=C3C=CC(N4CCCC4)=[N+]3[B-](F)(F)n3c2ccc3-n2cc(CO)nn2)cc1 [MKAC215-70]
λmax Abs. (nm) [1]: 461 nm
λmax Em. (nm) [1]: 574 nm
φ (%) ([2]; MKAC compound library): 1.11%

CN(Cc1ccccc1)Cc1cn(-c2ccc3n2[B-](F)(F)[N+]2=C(N4CCCC4)C=CC2=C3c2ccc(NC(=O)CCl)cc2)nn1 [MKCA215-18]
λmax Absorp. (nm) [1]: 461 nm
λmax Emission (nm) [1]: 577 nm
φ (%) ([2]; MKCA compound library): 2.62%

CC(=O)Nc1ccc(C2=C3C=CC(N4CCCCC4)=[N+]3[B-](F)(F)n3c2ccc3-n2cc(C(C)(C)C)nn2)cc1 [BDCAC-1]
λmax Absorp. ([1]; BDCAC library, Table 3): 469 nm
λmax Emission ([1]; BDCAC library, Table 3): 580 nm
φ (quantum yield) ([2]; BDCAC library, Table 3): 1.5%

Nc1ccc(C2=C3C=CC(N4CCc5ccccc5C4)=[N+]3[B-](F)(F)n3c2ccc3-n2cc(CO)nn2)cc1 [MK66-70]
λmax Absorp. ([1]; MK library, Table 5): 479 nm
λmax Emission ([1]; MK library, Table 5): 596 nm
φ (quantum yield) ([2]; MK library, Table 5): 0.14%

CC(C)(C)c1ccc(-c2cn(-c3ccc4n3[B-](F)(F)[N+]3=C(N5CCCCC5)C=CC3=C4c3ccc(N)cc3)nn2)cc1 [BDC-11]
λmax Absorp. ([1]; BDC library, Table 2): 471 nm
λmax Emission ([1]; BDC library, Table 2): 552 nm
φ (quantum yield) ([2]; BDC library, Table 2): 0.74%

CCCc1cn(-c2ccc3n2[B-](F)(F)[N+]2=C(NCc4ccccc4OCC)C=CC2=C3c2ccc(NC(C)=O)cc2)nn1 [MKAC103-48]
λmax Abs. (nm) [1]: 466 nm
λmax Em. (nm) [1]: 562 nm
φ (%) ([2]; MKAC compound library): 20.07%

CCCc1cn(-c2ccc3n2[B-](F)(F)[N+]2=C(N4CCCC4)C=CC2=C3c2ccc(NC(=O)CCl)cc2)nn1 [MKCA215-48]
λmax Absorp. (nm) [1]: 462 nm
λmax Emission (nm) [1]: 565 nm
φ (%) ([2]; MKCA compound library): 4.60%

O=C(CCl)Nc1ccc(C2=C3C=CC(N4CCc5ccccc5C4)=[N+]3[B-](F)(F)n3c2ccc3-n2cc(CC3CCCCC3)nn2)cc1 [MKCA66-8]
λmax Absorp. (nm) [1]: 469 nm
λmax Emission (nm) [1]: 582 nm
φ (%) ([2]; MKCA compound library): 3.05%

CCCC(C)c1cn(-c2ccc3n2[B-](F)(F)[N+]2=C(NCc4ccccc4C)C=CC2=C3c2ccc(N)cc2)nn1 (stereo not drawn) [MK101-3]
λmax Absorp. ([1]; MK library, Table 5): 475 nm
λmax Emission ([1]; MK library, Table 5): 562 nm
φ (quantum yield) ([2]; MK library, Table 5): 1.08%

COc1ccc(OC)c(CNC2=[N+]3C(=C(c4ccc(NC(C)=O)cc4)c4ccc(-n5cc(CC(C)C)nn5)n4[B-]3(F)F)C=C2)c1 [MKAC181-43]
λmax Abs. (nm) [1]: 467 nm
λmax Em. (nm) [1]: 562 nm
φ (%) ([2]; MKAC compound library): 13.79%

CCCCCC(O)c1cn(-c2ccc3n2[B-](F)(F)[N+]2=C(NCc4ccccc4OCC)C=CC2=C3c2ccc(N)cc2)nn1 (stereo not drawn) [MK103-69]
λmax Absorp. ([1]; MK library, Table 5): 474 nm
λmax Emission ([1]; MK library, Table 5): 563 nm
φ (quantum yield) ([2]; MK library, Table 5): 2.28%

CC(=O)Nc1ccc(C2=C3C=CC(N(C)Cc4ccccc4)=[N+]3[B-](F)(F)n3c2ccc3-n2cc(CC(C)C)nn2)cc1 [MKAC195-43]
λmax Abs. (nm) [1]: 466 nm
λmax Em. (nm) [1]: 580 nm
φ (%) ([2]; MKAC compound library): 3.48%

CN(Cc1ccccc1)C1=[N+]2C(=C(c3ccc(N)cc3)c3ccc(-n4cc(CCc5ccccc5)nn4)n3[B-]2(F)F)C=C1 [MK195-19]
λmax Absorp. ([1]; MK library, Table 5): 477 nm
λmax Emission ([1]; MK library, Table 5): 582 nm
φ (quantum yield) ([2]; MK library, Table 5): 0.27%

CCOc1ccccc1CNC1=[N+]2C(=C(c3ccc(NC(C)=O)cc3)c3ccc(-n4cc(C5CCCC5)nn4)n3[B-]2(F)F)C=C1 [MKAC103-5]
λmax Abs. (nm) [1]: 465 nm
λmax Em. (nm) [1]: 562 nm
φ (%) ([2]; MKAC compound library): 18.11%

Nc1ccc(C2=C3C=CC(N4CCCCC4)=[N+]3[B-](F)(F)n3c2ccc3-n2cc(CC3CCCC3)nn2)cc1 [BDC-7]
λmax Absorp. ([1]; BDC library, Table 2): 476 nm
λmax Emission ([1]; BDC library, Table 2): 573 nm
φ (quantum yield) ([2]; BDC library, Table 2): 0.23%

CCCCCCc1cn(-c2ccc3n2[B-](F)(F)[N+]2=C(N4CCCCC4)C=CC2=C3c2ccc(NC(=O)CCl)cc2)nn1 [BDCCA-47]
λmax Absorp. ([1]; BDCCA library, Table 4): 466 nm
λmax Emission ([1]; BDCCA library, Table 4): 560 nm
φ (quantum yield) ([2]; BDCCA library, Table 4): 1.8%

CCCCCC(O)c1cn(-c2ccc3n2[B-](F)(F)[N+]2=C(N4CCCCC4)C=CC2=C3c2ccc(N)cc2)nn1 (stereo not drawn) [BDC-69]
λmax Absorp. ([1]; BDC library, Table 2): 476 nm
λmax Emission ([1]; BDC library, Table 2): 586 nm
φ (quantum yield) ([2]; BDC library, Table 2): 0.13%

Nc1ccc(C2=C3C=CC(N4CCCC4)=[N+]3[B-](F)(F)n3c2ccc3-n2cc(CCc3ccccc3)nn2)cc1 [MK215-19]
λmax Absorp. ([1]; MK library, Table 5): 471 nm
λmax Emission ([1]; MK library, Table 5): 578 nm
φ (quantum yield) ([2]; MK library, Table 5): 0.22%

CC(=O)Nc1ccc(C2=C3C=CC(N4CCCCC4)=[N+]3[B-](F)(F)n3c2ccc3-n2cc(CCc3ccccc3)nn2)cc1 [BDCAC-19]
λmax Absorp. ([1]; BDCAC library, Table 3): 467 nm
λmax Emission ([1]; BDCAC library, Table 3): 580 nm
φ (quantum yield) ([2]; BDCAC library, Table 3): 0.9%

Nc1ccc(C2=C3C=CC(N4CCCCC4)=[N+]3[B-](F)(F)n3c2ccc3-n2cc(C3(O)CCCC3)nn2)cc1 [BDC-67]
λmax Absorp. ([1]; BDC library, Table 2): 478 nm
λmax Emission ([1]; BDC library, Table 2): 595 nm
φ (quantum yield) ([2]; BDC library, Table 2): 0.09%

O=C(CCl)Nc1ccc(C2=C3C=CC(N4CCCCC4)=[N+]3[B-](F)(F)n3c2ccc3-n2cc(CC3CCCCC3)nn2)cc1 [BDCCA-8]
λmax Absorp. ([1]; BDCCA library, Table 4): 468 nm
λmax Emission ([1]; BDCCA library, Table 4): 589 nm
φ (quantum yield) ([2]; BDCCA library, Table 4): 0.6%
